Experimental data: patent US20210277015A1, “OGA INHIBITOR COMPOUNDS” (Janssen Pharmaceutica NV, priority 2018, published 2021)

How the values were obtained:
[1] = target: T1, recombinant human Meningioma Expressed Antigen 5 (MGEA5), also referred to as O-GlcNAcase (OGA) (Homo sapiens, UniProt O60502); assay: OGA biochemical assay (inhibition of FM-GlcNAc hydrolysis, fluorescence); conditions: FM-GlcNAc substrate; for IC50: 6 h at room temperature, read-out: Enzymatic hOGA, pIC50 (converted); for Enzymatic Emax (%) / Emax: maximal effect; for Emax: read-out: Enzymatic Emax (%)
T1 construct: Full length OGA enzyme was purchased at OriGene (cat #TP322411); purchased OriGene TP322411
T1 sequence (O60502 1-916): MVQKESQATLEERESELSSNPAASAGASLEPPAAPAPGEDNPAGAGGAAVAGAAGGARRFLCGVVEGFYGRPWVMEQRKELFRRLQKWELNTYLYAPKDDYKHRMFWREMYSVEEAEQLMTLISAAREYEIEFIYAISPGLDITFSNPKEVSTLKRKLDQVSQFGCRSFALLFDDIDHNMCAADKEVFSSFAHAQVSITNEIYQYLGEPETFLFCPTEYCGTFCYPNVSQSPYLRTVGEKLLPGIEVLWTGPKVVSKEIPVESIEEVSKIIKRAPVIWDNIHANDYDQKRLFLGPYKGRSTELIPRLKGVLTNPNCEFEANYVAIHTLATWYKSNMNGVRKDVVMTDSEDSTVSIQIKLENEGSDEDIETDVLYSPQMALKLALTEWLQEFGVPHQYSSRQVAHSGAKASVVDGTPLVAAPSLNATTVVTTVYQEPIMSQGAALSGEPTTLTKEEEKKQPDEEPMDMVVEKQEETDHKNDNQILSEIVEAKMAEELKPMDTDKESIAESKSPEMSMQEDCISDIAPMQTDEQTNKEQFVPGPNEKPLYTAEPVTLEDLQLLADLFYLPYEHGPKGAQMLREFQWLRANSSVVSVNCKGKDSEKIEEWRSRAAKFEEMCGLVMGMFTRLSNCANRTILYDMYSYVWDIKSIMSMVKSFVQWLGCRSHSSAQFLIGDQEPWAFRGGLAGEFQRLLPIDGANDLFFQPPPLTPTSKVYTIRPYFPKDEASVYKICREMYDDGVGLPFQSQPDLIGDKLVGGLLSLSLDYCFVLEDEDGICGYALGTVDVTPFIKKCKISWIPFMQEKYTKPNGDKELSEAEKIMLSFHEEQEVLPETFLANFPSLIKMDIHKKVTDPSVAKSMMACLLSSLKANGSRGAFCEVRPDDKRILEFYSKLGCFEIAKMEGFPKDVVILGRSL
From the text: The assay is based on the inhibition of the hydrolysis of fluorescein mono-β-D-N-Acetyl-Glucosamine (FM-GlcNAc) (Mariappa et al. 2015, Biochem J 470:255) by the recombinant human Meningioma Expressed Antigen 5 (MGEA5), also referred to as O-GlcNAcase (OGA). The hydrolysis FM-GlcNAc (Marker Gene technologies, cat #M1485) results in the formation of β-D-N-glucosamineacetate and fluorescein. The fluorescence of the latter can be measured at excitation wavelength 485 nm and emission wavelength 538 nm. An increase in enzyme activity results in an increase in fluorescence signal. Full length OGA enzyme was purchased at OriGene (cat #TP322411). The enzyme was stored in 25 mM Tris.HCl, pH 7.3, 100 mM glycine, 10% glycerol at −20° C. Thiamet G and GlcNAcStatin were tested as reference compounds (Yuzwa et al. 2008 Nature Chemical Biology 4:483; Yuzwa et al. 2012 Nature Chemical Biology 8:393). The assay was performed in 200 mM Citrate/phosphate buffer supplemented with 0.005% Tween-20. 35.6 g Na2HPO4 2 H2O (Sigma, #C0759) were dissolved in 1 L water to obtain a 200 mM solution. 19.2 g citric acid (Merck, #1.06580) was dissolved in 1 L water to obtain a 100 mM solution. pH of the sodium phosphate solution was adjusted with the citric acid solution to 7.2. The buffer to stop the reaction consists of a 500 mM Carbonate buffer, pH 11.0. 734 mg FM-GlcNAc were dissolved in 5.48 mL DMSO to obtain a 250 mM solution and was stored at −20° C. OGA was used at a 2 nM concentration and FM-GlcNAc at a 100 uM final concentration. Dilutions were prepared in assay buffer.
50 nl of a compound dissolved in DMSO was dispensed on Black Proxiplate™ 384 Plus Assay plates (Perkin Elmer, #6008269) and 3 μl fl-OGA enzyme mix added subsequently. Plates were pre-incubated for 60 min at room temperature and then 2 μl FM-GlcNAc substrate mix added. […] Plates were briefly centrifuged for 1 min at 1000 rpm and incubate at room temperature for 6 h. To stop the reaction 5 μl STOP buffer were added and plates centrifuge again 1 min at 1000 rpm. Fluorescence was quantified in the Thermo Scientific Fluoroskan Ascent or the PerkinElmer EnVision with excitation wavelength 485 nm and emission wavelength 538 nm.
For analysis a best-fit curve is fitted by a minimum sum of squares method. From this an IC50 value and Hill coefficient was obtained. High control (no inhibitor) and low control (saturating concentrations of standard inhibitor) were used to define the minimum and maximum values.

[2] = target: T2, OGA (Homo sapiens, UniProt O60502); assay: OGA cellular assay (ICC detection of O-GlcNAcylated proteins in HEK293 cells inducible for P301L mutant human Tau); format: cell-based; conditions: for Emax: HEK293, HEK293 cells inducible for P301L mutant human Tau; for Emax / Cellular Emax (%): maximum defined by Thiamet G at 200 uM; for EC50 / Cellular Emax (%) / Cellular hOGA; pEC50: HEK293 cells inducible for P301L mutant human Tau; for EC50 / Cellular hOGA; pEC50: 6 hours incubation, ICC O-GlcNAcylation; for EC50: read-out: Cellular hOGA, pEC50 (converted)
T2 construct: endogenous in cells; host or cells: HEK293 cells inducible for P301L mutant human Tau (isoform 2N4R)
T2 sequence (O60502 1-916): T1 sequence (O60502 1-916)
Experimental: HEK293 cells inducible for P301L mutant human Tau (isoform 2N4R) were established at Janssen. Thiamet-G was used for both plate validation (high control) and as reference compound (reference EC50 assay validation). OGA inhibition is evaluated through the immunocytochemical (ICC) detection of O-GlcNAcylated proteins by the use of a monoclonal antibody (CTD110.6; Cell Signaling, #9875) detecting O-GlcNAcylated residues as previously described (Dorfmueller et al. 2010 Chemistry & biology, 17:1250). Inhibition of OGA will result in an increase of O-GlcNAcylated protein levels resulting in an increased signal in the experiment. Cell nuclei are stained with Hoechst to give a cell culture quality control and a rough estimate of immediate compounds toxicity, if any. ICC pictures are imaged with a Perkin Elmer Opera Phenix plate microscope and quantified with the provided software Perkin Elmer Harmony 4.1.
Cells were propagated in DMEM high Glucose (Sigma, #D5796) following standard procedures. 2 days before the cell assay cells are split, counted and seeded in Poly-D-Lysine (PDL) coated 96-wells (Greiner, #655946) plate at a cell density of 12,000 cells per cm^2 (4,000 cells per well) in 100 μl of Assay Medium (Low Glucose medium is used to reduce basal levels of GlcNAcylation) (Park et al. 2014 The Journal of biological chemistry 289:13519). At the day of compound test medium from assay plates was removed and replenished with 90 μl of fresh Assay Medium. 10 μl of compounds at a 10 fold final concentration were added to the wells. Plates were centrifuged shortly before incubation in the cell incubator for 6 hours. DMSO concentration was set to 0.2%. Medium is discarded by applying vacuum. For staining of cells medium was removed and cells washed once with 100 μl D-PBS (Sigma, #D8537). From next step onwards unless other stated assay volume was always 50 μl and incubation was performed without agitation and at room temperature. Cells were fixed in 50 μl of a 4% paraformaldehyde (PFA, Alpha aesar, #043368) PBS solution for 15 minutes at room temperature. […] Before analysis samples were washed 2 times manually for 5 minutes in ICC base buffer.
Imaging is performed using Perkin Elmer Phenix Opera using a water 20× objective and recording 9 fields per well. Intensity readout at 488 nm is used as a measure of O-GlcNAcylation level of total proteins in wells. To assess potential toxicity of compounds nuclei were counted using the Hoechst staining. IC50-values are calculated using parametric non-linear regression model fitting. As a maximum inhibition Thiamet G at a 200 uM concentration is present on each plate. In addition, a concentration response of Thiamet G is calculated on each plate.

Compound | IC50 [1] | Enzymatic Emax (%) [1] | Emax [2] | EC50 [2] | Cellular Emax (%) [2] | Cellular hOGA; pEC50 [2] | Emax [1]
CC(c1cc2c(cc1F)OCCO2)N1CC[C@H](Cc2ncc(F)cc2F)C1 (single isomer, unassigned) [Product 29] | 50.1 nM | 102% | 35% | > 1000 nM | – | – | –
Cc1cc(C[C@@H]2CCN(C(C)c3cnc4c(c3)OCCO4)C2)cc(C)n1 (single isomer, unassigned) [Product 35] | 7940 nM | 54% | – | > 1000 nM | −6% | – | –
Cc1cc(C[C@@H]2CCN(C(C)c3cnc4c(c3)OCCO4)C2)cc(C)n1 (single isomer, unassigned) [Product 36] | 200 nM | 99% | – | – | 15% | <6 | –
Cc1cc(O[C@@H]2CCN(C(C)c3nc4c(cc3F)OCCO4)C2)cc(C)n1 (single isomer, unassigned) [Product 40] | 7.94 nM | – | – | 158 nM | 84% | – | 100%
Cc1cc(O[C@@H]2CCN(C(C)c3nc4c(cc3F)OCCO4)C2)cc(C)n1 (single isomer, unassigned) [Product 41] | 1580 nM | 87% | – | > 1000 nM | −13% | – | –
Cc1cc(C[C@@H]2CCN(C(C)c3nc4c(cc3F)OCCO4)C2)cc(C)n1 (single isomer, unassigned) [Product 51] | 398 nM | – | – | > 1000 nM | 8% | – | 96%
Cc1cc(C[C@@H]2CCN(C(C)c3nc4c(cc3F)OCCO4)C2)cc(C)n1 (single isomer, unassigned) [Product 52] | 6.31 nM | 101% | – | 63.1 nM | 80% | – | –
CC(c1ccc2c(n1)OCCO2)N1CC[C@@H](Oc2ccc(C#N)nn2)C1 (single isomer, unassigned) [Product 54] | > 10000 nM | 19% | – | > 1000 nM | 2% | – | –
CC(c1ccc2c(n1)OCCO2)N1CC[C@@H](Oc2ccc(C#N)nn2)C1 (single isomer, unassigned) [Product 55] | 200 nM | 94% | – | – | 24% | <6 | –
Cc1cc(O[C@H]2CCN(C(C)c3ccc4c(n3)OCCO4)C2)cc(C)n1 (single isomer, unassigned) [Product 71] | 794 nM | 99% | – | > 1000 nM | 9% | – | –
Cc1cc(O[C@H]2CCN(C(C)c3ccc4c(n3)OCCO4)C2)cc(C)n1 (single isomer, unassigned) [Product 72] | > 10000 nM | 21% | – | – | −8% | <6 | –
Cc1cc(O[C@@H]2CCN(C(C)c3ccc4c(n3)OCCO4)C2)cc(C)n1 (single isomer, unassigned) [Product 74] | 7940 nM | 50% | – | > 1000 nM | −9% | – | –
Cc1cc(O[C@@H]2CCN(C(C)c3ccc4c(n3)OCCO4)C2)cc(C)n1 (single isomer, unassigned) [Product 75] | 39.8 nM | 99% | – | – | 34% | <6 | –
COc1cc(C[C@H]2CCN(C(C)c3nc4c(cc3F)CCO4)C2)cc(C)n1 (single isomer, unassigned) [Product 84] | 3.16 nM | – | 100% | 15.8 nM | – | – | 102%
COc1cc(CC2(C)CCN(C(C)c3ccc4c(n3)OCCO4)C2)cc(C)n1 (single isomer, unassigned) [Product 95] | 79.4 nM | – | 39% | > 1000 nM | – | – | 100%
Cc1cc(OC[C@]2(C)CCN([C@H](C)c3ccc4c(n3)OCCO4)C2)cc(C)n1 (single isomer, unassigned) [Product 100] | 2000 nM | 87% | – | > 1000 nM | −5% | – | –
Cc1cc(OC[C@]2(C)CCN([C@H](C)c3ccc4c(n3)OCCO4)C2)cc(C)n1 (single isomer, unassigned) [Product 101] | > 10000 nM | 13% | – | – | −4% | <6 | –
Cc1cc(OC[C@]2(C)CCN([C@H](C)c3ccc4c(n3)OCCO4)C2)cc(C)n1 (single isomer, unassigned) [Product 102] | 398 nM | 93% | – | – | 7% | <6 | –
